Measurements as given in patent publication US20250152605A1, “METHOD AND DRUG FOR TREATING NEURONAL CEROID LIPOFUSCINOSIS” (priority 2021, published 2025).

Columns and labels:
[1] = system: NRF2 downstream genes; assay: qRT-PCR of NRF2 downstream genes; assay type: cell-based; settings: CLN3^Δex7/8 human neural stem cells, 6 hours
Protocol: The cells in the cell-culture dish were collected, extracted using AxyPrep Total RNA Mini Prep Kit or Qiagen AxyPrep Total RNA Mini Prep Kit, and the extracted RNA concentration is measured using Nanodrop; the extracted mRNA was reverse transcribed into cDNA by Transgen's EasyScript® One-Step gDNA Removal and cDNA Synthesis SuperMix and the primers used for reverse transcription were Oligo dT primers; the completion of reverse transcription followed by qRT-PCR reaction through PerfectStart™ Green qPCR SuperMix to detect the expression of the target gene; the qRT-PCR reaction was performed on the Bio-Rad CFX96 Real-Time PCR system; see Table 2 and Table 3 for the 20 μL qRT-PCR reaction system and reaction procedures; data analysis was performed in Prism 7 software using the 2^−ΔΔCt process with GAPDH as internal reference for relative quantification of the expression of the target gene.
Primers were further designed, verification of qRT-PCR was conducted on the above activated genes in the downstream of NRF2. After treating CLN3^Δex7/8 human neural stem cells with Compound G for 6 hours, the cells were collected and mRNA was extracted for detecting the expression level of the genes.

[2] = molecular target: T1, KEAP1 protein (Homo sapiens, UniProt Q14145); assay: Quantitative thiol reactivity analysis; assay type: binding; settings: CLN3^Δex7/8 human neural stem cells, 30 μM, 2 hours, mass spectrometry
T1 construct: mass spectrometry was used to analyze the thiol reactivity of the cysteine residues on KEAP1 in the lysate; endogenous in cells; host or cells: CLN3 Δex7/8 human neural stem cells differentiated from H9 human embryonic stem cells
T1 sequence (Q14145 whole entry): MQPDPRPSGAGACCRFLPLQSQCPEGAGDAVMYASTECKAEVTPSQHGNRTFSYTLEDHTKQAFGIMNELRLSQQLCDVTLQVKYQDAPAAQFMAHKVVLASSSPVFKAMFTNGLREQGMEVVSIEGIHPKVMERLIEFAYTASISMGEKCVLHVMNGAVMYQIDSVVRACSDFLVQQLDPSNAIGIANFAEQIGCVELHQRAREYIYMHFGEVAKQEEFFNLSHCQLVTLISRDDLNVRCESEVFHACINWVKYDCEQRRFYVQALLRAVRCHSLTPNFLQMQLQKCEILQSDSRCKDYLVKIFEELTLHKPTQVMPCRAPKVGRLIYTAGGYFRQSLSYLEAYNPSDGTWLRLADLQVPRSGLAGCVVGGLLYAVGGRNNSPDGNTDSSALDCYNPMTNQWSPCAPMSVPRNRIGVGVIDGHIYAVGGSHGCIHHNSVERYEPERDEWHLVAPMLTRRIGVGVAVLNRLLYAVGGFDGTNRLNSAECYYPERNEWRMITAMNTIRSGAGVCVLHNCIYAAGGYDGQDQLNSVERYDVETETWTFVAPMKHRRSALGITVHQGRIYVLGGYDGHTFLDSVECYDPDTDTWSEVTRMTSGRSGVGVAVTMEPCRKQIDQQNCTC
Protocol: To determine the protein covalently bound to Compound G, a Compound G-binding proteomic analysis with the following steps was performed: neural stem cells were cultured in 10 cm cell culture dishes to a cell density of 90%. 1-2 mg of protein could be obtained after the neural stem cells in a 10 cm cell culture dish are lysed; the supernatant was aspirated, fresh medium containing 30 μM Compound G or medium containing an equal volume of solvent DMSO was added, followed by incubation in a cell culture incubator at 37° C. for 2 hours; the cell medium was aspirated followed by washing once with 10 mL of dPBS, and the aspiration should be as clean as possible.
The cell culture dish was placed on ice and added with RIPA cell lysis buffer with protease inhibitors and phosphatase inhibitors (for the formulation, please refer to the flow cytometry analysis and sorting section); all cells were scraped off on ice using a cell scraper and collected into 1.5 mL EP tubes; the sample was placed on ice and ultrasonically broken with an ultrasonic power of 20% and with ultrasound 5 times for 3 seconds each time; ENE probe at a final concentration of 100 μM was added to each sample, followed by incubation for 1 hour in the dark while rotating. ENE could react with sulfhydryl groups in protein cysteine residues to produce stable thioether bonds. […]

[3] = system: Cln3 KO mice; assay: Open field test; assay type: in vivo, mouse; settings: 4-5 months old Cln3 KO mice, within 10 minutes
Protocol: Open field tests were conducted on mice using blue boxes measuring 50 cm×50 cm×40 cm, with specific steps as follows: the mice to be tested were kept in single cages for more than 1 week to adapt to the environment; the central 25 cm×25 cm area of the box was divided into a central area. The mice were placed gently in the central area facing away from the experimenter, and the video device was started to record the movement track of the mice within 10 minutes; the boxes were thoroughly wiped twice with 75% ethanol to eliminate the odor of the mouse, and then the next mouse was placed for movement track record within 10 minutes; the movement track of mice was analyzed with the Noldus software, and the analysis indicators included the movement speed and total movement distance of mice. The number of times the mice stood upright on their hind legs within 10 minutes was manually counted by the experimenter.
[…] experiments were conducted on 4-5 months old wild-type mice, Cln3 KO mice, and Compound G-treated Cln3 KO mice. The mouse was gently placed in the mine field, it was allowed to move freely, and the route, distance and speed of its movement within 10 minutes were recorded.

SMILES: C/C=C1\C(=O)C[C@H]2[C@@H]3CCC4=CC(=O)CC[C@]4(C)[C@H]3CC[C@]12C [Compound G, (Z)-guggulsterone]
- expression level of most NRF2 downstream genes [1]: significantly increase
- thiol reactivity of the cysteine residues on KEAP1 [2]: reduce the thiol reactivity of cysteine residue 288
- distance of the movement in the field [3]: improve the distance and the speed of the movement
- speed of the movement in the field [3]: improve the distance and the speed of the movement
